The test system of this test is KRAS patient-derived spheroids with HUVEC/MSC, viability. Briefly: Anticancer human tumor 941728-121-R-J1-PDC patient-derived lung adenocarcinoma cell line growth inhibition [KRAS2]. The following applies: for viability, T/C: stronger effect = lower value. An excerpt: Multicellular complex tumor spheroid response to RAS pathway inhibitors in combination with a targeted agents in patient-derived cell lines with oncogenic KRAS variants from multiple cancer types
A high-throughput screen of multi-cell type tumor spheroids was designed to identify active combinations of targeted small molecules and KRAS pathway inhibitors. Complex spheroids include a stromal component modeled by human endothelial cells (HUVEC) and fibroblasts modeled by human mesenchymal stem cells (MSCs). The concentration ranges selected for each drug and investigational agent were based upon clinically achievable concentrations if the clinical Cmax of the agent was known.
Compounds. The drugs and investigational agents: BI-3406 (NSC825286), BAY-293 (NSC824723), batoprotafib (TNO155; NSC825523), sotorasib (AMG 510; NSC818433), MRTX1257 (NSC819558), elimusertib (BAY 1895344; NSC800525), molibresib (GSK525762; NSC774829), temuterkib (LY3214996; NSC803410), venetoclax (NSC766270), alisertib (NSC759677), olaparib (NSC753686), talazoparib (NSC767125), erdafitinib (NSC781556), ipatasertib (NSC767898), cabozantinib (NSC761068), nintedanib (NSC756659), abemaciclib (NSC768073), docetaxel (NSC628503), trametinib (NSC758246), and sapanisertib (NSC764658) were obtained from the National Cancer Institute (NCI) Developmental Therapeutics Program Chemical Repository. The FDA-approved anticancer drug set is available from the Developmental Therapeutics Program. […] The stock solutions were prepared in dimethyl sulfoxide (DMSO, Sigma-Aldrich, St. Louis, MO, cat. D2650) at 800-fold the tested concentration and stored at -70 degrees C prior to their use. All drugs and investigational agents were tested over a range starting from a high concentration at or near the clinical Cmax and decreasing in half-log increments. If the clinical Cmax for an agent had not been determined, the highest concentration tested was 10 microM.
Cell Culture. All cells were maintained in an incubator at 37 degrees C and 5% CO2 with 95% humidity. The PDC lines were cultured according to standard operating procedures established by the NCI PDMR (https://pdmr.cancer.gov/sops/default.htm). Briefly, all PDCs were thawed and cultured in Matrigel-coated flasks prepared with a working solution of 1X Ham's F-12 nutrient mix, without supplementation (Invitrogen, Waltham, MA, cat. 11765054), 100 U/mL penicillin-streptomycin (Invitrogen, cat. 15140122), and 2.5% Matrigel (Corning Inc., Corning, NY, cat. 354248) for the first three passages. All PDCs were cultured in complete DMEM/F-12 media containing advanced DMEM/F-12 (Invitrogen, cat. 12634028), 4.9% defined fetal bovine serum, heat inactivated (HyClone Laboratories Inc., Logan, UT, cat. SH30070.03HI), 389 ng/mL hydrocortisone (Sigma-Aldrich, cat. H4001), 9.7 ng/mL human EGF recombinant protein (Invitrogen, cat. PHG0313), 23.4 microg/mL adenine (Sigma-Aldrich, cat. A2786), 97.3 U/mL penicillin-streptomycin (Invitrogen, cat. 15140122), 1.9 mM L-glutamine (Invitrogen, cat. 25030081), and 9.7 microM Y-27632 dihydrochloride (Tocris Bioscience, Bristol, United Kingdom, cat. 1254). The PDCs were cultured in complete DMEM/F12 media without 9.7 microM Y-27632 dihydrochloride for at least two passages prior to the screen. The established cell line HOP-62 was cultured in RPMI 1640 medium, HEPES (Invitrogen, cat. 22400105) with 10% defined fetal bovine serum (HyClone Laboratories Inc., cat. SH30070.03) and 2 mM L-glutamine (Invitrogen, cat. 25030081). The pooled donor HUVEC were cultured in endothelial cell growth medium 2 (PromoCell, Heidelberg, Germany, cat. C-22011) and the hMSC were cultured in mesenchymal stem cell growth medium 2 (PromoCell, cat. C-28009). For all experiments, HUVEC and hMSC were used at passages </=5, while the malignant cell lines were used at passages </=15. […]

Where [1] appears, read: compound alone, run of 07/19/2021.

Where “and” joins values, the source holds several entries; their conditions need not be identical. Equal entries are not always repeated.

By viability, T/C is commonly meant the ratio of treated to control. What is called IC50 is the concentration at which inhibition is half-maximal.
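Further: spheroids exposed to agents for seven days before readout.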

In the case of `CNCc1ccccc1-c1csc(C(C)Nc2nc(C)nc3cc(OC)c(OC)cc23)c1` (stereo not drawn), the viability, T/C (compound 10 µM) was 0.17% [middle of 15 runs]. For the same compound, the IC50 under setting [1] was 112 nM [middle of 5 runs].

Take `COc1cc2nc(C)nc(NC(C)c3cc(N)cc(C(F)(F)F)c3)c2cc1OC1CCOC1` (stereo not drawn): the IC50 under setting [1] was < 100 nM and 376 nM and 226 nM.

On to `CC(=O)OC12COC1CC(O)C1(C)C(=O)C(O)C3=C(C)C(OC(=O)C(O)C(NC(=O)OC(C)(C)C)c4ccccc4)CC(O)(C(OC(=O)c4ccccc4)C21)C3(C)C` (stereo not drawn) + C=CC(=O)N1CCN(c2nc(=O)n(-c3c(C)ccnc3C(C)C)c3nc(-c4c(O)cccc4F)c(F)cc23)C(C)C1, for which the IC50 is less than 10 nM (curve of first compound, second compound 0.1 µM); less than 10 nM (curve of first compound, second compound 0.316 µM); less than 10 nM (curve of first compound, second compound 1 µM); less than 10 nM (curve of first compound, second compound 3.16 µM); less than 10 nM (curve of first compound, second compound 10 µM). Besides, the viability, T/C is, setting by setting: (second compound 0.1 µM, first compound 0.01 µM) 19.7%; (second compound 0.1 µM, first compound 0.0316 µM) 17.1%; (second compound 0.1 µM, first compound 0.1 µM) 19.8%; (second compound 0.1 µM, first compound 0.316 µM) 18.1%; (second compound 0.1 µM, first compound 1 µM) 21.7%; (second compound 0.1 µM, first compound 3.16 µM) 20.2%. The viability, T/C (second compound 0.316 µM, first compound 0.01 µM) is 18.4%; the viability, T/C (second compound 0.316 µM, first compound 0.0316 µM) is 17.4%; the viability, T/C (second compound 0.316 µM, first compound 0.1 µM) is 17.4%; the viability, T/C (second compound 0.316 µM, first compound 0.316 µM) was 20.2%; the viability, T/C (second compound 0.316 µM, first compound 1 µM) was 20.4%; the viability, T/C (second compound 0.316 µM, first compound 3.16 µM) was 18.3%. For the same compound, the viability, T/C is, setting by setting: (second compound 1 µM, first compound 0.01 µM) 16.6%; (second compound 1 µM, first compound 0.0316 µM) 19.2%; (second compound 1 µM, first compound 0.1 µM) 16.4%; (second compound 1 µM, first compound 0.316 µM) 19.1%; (second compound 1 µM, first compound 1 µM) 20.6%; (second compound 1 µM, first compound 3.16 µM) 20.1%. For the same compound, the viability, T/C (second compound 3.16 µM, first compound 0.01 µM) was 16.4%; the viability, T/C (second compound 3.16 µM, first compound 0.0316 µM) is 21.9%; the viability, T/C (second compound 3.16 µM, first compound 0.1 µM) was 20.9%; the viability, T/C (second compound 3.16 µM, first compound 0.316 µM) is 19.5%; the viability, T/C (second compound 3.16 µM, first compound 1 µM) is 23.8%; the viability, T/C (second compound 3.16 µM, first compound 3.16 µM) is 19%. Further, the viability, T/C by setting is: (second compound 10 µM, first compound 0.01 µM) 25.9%; (second compound 10 µM, first compound 0.0316 µM) 24%; (second compound 10 µM, first compound 0.1 µM) 29.5%; (second compound 10 µM, first compound 0.316 µM) 26.2%; (second compound 10 µM, first compound 1 µM) 28.8%; (second compound 10 µM, first compound 3.16 µM) 25.5%.

Values taken from PubChem BioAssay AID1963862 (Molecular Pharmacology Branch, DTP, NCI, 2024).
